Assays:
Test in all cases: Weeding effect in post-emergence stage
Format in all cases: in vivo
Settings in all cases: 250 g/ha; 2 leaf stage; 15 days after application; fresh weight control rate
Abutilon theophrasti = tested on: Abutilon theophrasti
Procedure, shortened: (§1)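 Pot-grown weeds sprayed post-emergence at the 2-leaf stage, 2 weeks after sowing, with compound in acetone/Tween 80 plus 1.5 L/ha methyl oleate concentrate at 500–15 g/ha. Fresh-weight growth control scored after 15 days in greenhouse, mean of three replicates, graded levels 0–5 (5: >85%, 0: <5%).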

Setaria viridis = tested on: Setaria viridis
Procedure, shortened: as §1

Echinochloa crusgali = tested on: Echinochloa crusgali
Procedure, shortened: as §1

Digitaria sanguinalis = tested on: Digitaria sanguinalis
Procedure, shortened: as §1

Amaranthus retroflexus = tested on: Amaranthus retroflexus
Procedure, shortened: as §1

Cc1nnc(NC(=O)c2ccc(C(F)(F)F)c([S+]([O-])C(F)(F)C(F)(F)C(F)(F)F)c2F)o1 (centres unmarked) [Compound 33]
weeding effect in post-emergence stage, activity level (growth control rate), Abutilon theophrasti (Abutilon theophrasti): 5 (Level 5: growth control rate is above 85%) | weeding effect in post-emergence stage, activity level (growth control rate), Setaria viridis (Setaria viridis): 5 (Level 5: growth control rate is above 85%) | weeding effect in post-emergence stage, activity level (growth control rate), Echinochloa crusgali (Echinochloa crusgali): 5 (Level 5: growth control rate is above 85%) | weeding effect in post-emergence stage, activity level (growth control rate), Digitaria sanguinalis (Digitaria sanguinalis): 5 (Level 5: growth control rate is above 85%) | weeding effect in post-emergence stage, activity level (growth control rate), Amaranthus retroflexus (Amaranthus retroflexus): 5 (Level 5: growth control rate is above 85%)

COCC[S@@+]([O-])c1c(C(F)(F)F)ccc(C(=O)Nc2nnc(C)o2)c1OC [Compound 344]
weeding effect in post-emergence stage, activity level (growth control rate), Abutilon theophrasti (Abutilon theophrasti): 5 (Level 5: growth control rate is above 85%) | weeding effect in post-emergence stage, activity level (growth control rate), Setaria viridis (Setaria viridis): 5 (Level 5: growth control rate is above 85%) | weeding effect in post-emergence stage, activity level (growth control rate), Echinochloa crusgali (Echinochloa crusgali): 5 (Level 5: growth control rate is above 85%) | weeding effect in post-emergence stage, activity level (growth control rate), Digitaria sanguinalis (Digitaria sanguinalis): 5 (Level 5: growth control rate is above 85%) | weeding effect in post-emergence stage, activity level (growth control rate), Amaranthus retroflexus (Amaranthus retroflexus): 5 (Level 5: growth control rate is above 85%)

C#CC[S@@+]([O-])c1c(C(F)(F)F)ccc(C(=O)Nc2nnc(C)o2)c1OC [Compound 314]
weeding effect in post-emergence stage, activity level (growth control rate), Abutilon theophrasti (Abutilon theophrasti): 5 (Level 5: growth control rate is above 85%) | weeding effect in post-emergence stage, activity level (growth control rate), Setaria viridis (Setaria viridis): 5 (Level 5: growth control rate is above 85%) | weeding effect in post-emergence stage, activity level (growth control rate), Echinochloa crusgali (Echinochloa crusgali): 5 (Level 5: growth control rate is above 85%) | weeding effect in post-emergence stage, activity level (growth control rate), Digitaria sanguinalis (Digitaria sanguinalis): 5 (Level 5: growth control rate is above 85%) | weeding effect in post-emergence stage, activity level (growth control rate), Amaranthus retroflexus (Amaranthus retroflexus): 5 (Level 5: growth control rate is above 85%)

COc1c(C(=O)Nc2nnc(C)o2)ccc(C(F)(F)F)c1[S@+]([O-])CCC(F)(F)C(F)(F)F [Compound 329]
weeding effect in post-emergence stage, activity level (growth control rate), Abutilon theophrasti (Abutilon theophrasti): 5 (Level 5: growth control rate is above 85%) | weeding effect in post-emergence stage, activity level (growth control rate), Setaria viridis (Setaria viridis): 5 (Level 5: growth control rate is above 85%) | weeding effect in post-emergence stage, activity level (growth control rate), Echinochloa crusgali (Echinochloa crusgali): 5 (Level 5: growth control rate is above 85%) | weeding effect in post-emergence stage, activity level (growth control rate), Digitaria sanguinalis (Digitaria sanguinalis): 5 (Level 5: growth control rate is above 85%) | weeding effect in post-emergence stage, activity level (growth control rate), Amaranthus retroflexus (Amaranthus retroflexus): 5 (Level 5: growth control rate is above 85%)

COCC[S@@+]([O-])c1c(C(F)(F)F)ccc(C(=O)Nc2nnc(C)o2)c1F [Compound 72]
weeding effect in post-emergence stage, activity level (growth control rate), Abutilon theophrasti (Abutilon theophrasti): 5 (Level 5: growth control rate is above 85%) | weeding effect in post-emergence stage, activity level (growth control rate), Setaria viridis (Setaria viridis): 5 (Level 5: growth control rate is above 85%) | weeding effect in post-emergence stage, activity level (growth control rate), Echinochloa crusgali (Echinochloa crusgali): 5 (Level 5: growth control rate is above 85%) | weeding effect in post-emergence stage, activity level (growth control rate), Digitaria sanguinalis (Digitaria sanguinalis): 5 (Level 5: growth control rate is above 85%) | weeding effect in post-emergence stage, activity level (growth control rate), Amaranthus retroflexus (Amaranthus retroflexus): 5 (Level 5: growth control rate is above 85%)

COc1c(C(=O)Nc2nnc(C)o2)ccc(C(F)(F)F)c1[S@+]([O-])CCC#N [Compound 338]
weeding effect in post-emergence stage, activity level (growth control rate), Abutilon theophrasti (Abutilon theophrasti): 5 (Level 5: growth control rate is above 85%) | weeding effect in post-emergence stage, activity level (growth control rate), Setaria viridis (Setaria viridis): 5 (Level 5: growth control rate is above 85%) | weeding effect in post-emergence stage, activity level (growth control rate), Echinochloa crusgali (Echinochloa crusgali): 5 (Level 5: growth control rate is above 85%) | weeding effect in post-emergence stage, activity level (growth control rate), Digitaria sanguinalis (Digitaria sanguinalis): 5 (Level 5: growth control rate is above 85%) | weeding effect in post-emergence stage, activity level (growth control rate), Amaranthus retroflexus (Amaranthus retroflexus): 5 (Level 5: growth control rate is above 85%)

C#CCC[S@@+]([O-])c1c(C(F)(F)F)ccc(C(=O)Nc2nnc(C)o2)c1OC [Compound 315]
weeding effect in post-emergence stage, activity level (growth control rate), Abutilon theophrasti (Abutilon theophrasti): 5 (Level 5: growth control rate is above 85%) | weeding effect in post-emergence stage, activity level (growth control rate), Setaria viridis (Setaria viridis): 5 (Level 5: growth control rate is above 85%) | weeding effect in post-emergence stage, activity level (growth control rate), Echinochloa crusgali (Echinochloa crusgali): 5 (Level 5: growth control rate is above 85%) | weeding effect in post-emergence stage, activity level (growth control rate), Digitaria sanguinalis (Digitaria sanguinalis): 5 (Level 5: growth control rate is above 85%) | weeding effect in post-emergence stage, activity level (growth control rate), Amaranthus retroflexus (Amaranthus retroflexus): 5 (Level 5: growth control rate is above 85%)

CC#CC[S@@+]([O-])c1c(C(F)(F)F)ccc(C(=O)Nc2nnc(C)o2)c1F [Compound 25]
weeding effect in post-emergence stage, activity level (growth control rate), Abutilon theophrasti (Abutilon theophrasti): 5 (Level 5: growth control rate is above 85%) | weeding effect in post-emergence stage, activity level (growth control rate), Setaria viridis (Setaria viridis): 5 (Level 5: growth control rate is above 85%) | weeding effect in post-emergence stage, activity level (growth control rate), Echinochloa crusgali (Echinochloa crusgali): 5 (Level 5: growth control rate is above 85%) | weeding effect in post-emergence stage, activity level (growth control rate), Digitaria sanguinalis (Digitaria sanguinalis): 5 (Level 5: growth control rate is above 85%) | weeding effect in post-emergence stage, activity level (growth control rate), Amaranthus retroflexus (Amaranthus retroflexus): 5 (Level 5: growth control rate is above 85%)

CSc1c(C(=O)Nc2nnc(C)o2)ccc(C(F)(F)F)c1[S@+]([O-])CC(C)F (some centres unmarked) [Compound 557]
weeding effect in post-emergence stage, activity level (growth control rate), Abutilon theophrasti (Abutilon theophrasti): 5 (Level 5: growth control rate is above 85%) | weeding effect in post-emergence stage, activity level (growth control rate), Setaria viridis (Setaria viridis): 5 (Level 5: growth control rate is above 85%) | weeding effect in post-emergence stage, activity level (growth control rate), Echinochloa crusgali (Echinochloa crusgali): 5 (Level 5: growth control rate is above 85%) | weeding effect in post-emergence stage, activity level (growth control rate), Digitaria sanguinalis (Digitaria sanguinalis): 5 (Level 5: growth control rate is above 85%) | weeding effect in post-emergence stage, activity level (growth control rate), Amaranthus retroflexus (Amaranthus retroflexus): 5 (Level 5: growth control rate is above 85%)

CC[S@@+]([O-])c1c(C(F)(F)F)ccc(C(=O)Nc2nnco2)c1OC [Compound 423]
weeding effect in post-emergence stage, activity level (growth control rate), Abutilon theophrasti (Abutilon theophrasti): 5 (Level 5: growth control rate is above 85%) | weeding effect in post-emergence stage, activity level (growth control rate), Setaria viridis (Setaria viridis): 5 (Level 5: growth control rate is above 85%) | weeding effect in post-emergence stage, activity level (growth control rate), Echinochloa crusgali (Echinochloa crusgali): 5 (Level 5: growth control rate is above 85%) | weeding effect in post-emergence stage, activity level (growth control rate), Digitaria sanguinalis (Digitaria sanguinalis): 5 (Level 5: growth control rate is above 85%) | weeding effect in post-emergence stage, activity level (growth control rate), Amaranthus retroflexus (Amaranthus retroflexus): 5 (Level 5: growth control rate is above 85%)

CCCn1nnnc1NC(=O)c1ccc(C(F)(F)F)c([S@+]([O-])CC)c1OC [Compound 447]
weeding effect in post-emergence stage, activity level (growth control rate), Abutilon theophrasti (Abutilon theophrasti): 5 (Level 5: growth control rate is above 85%) | weeding effect in post-emergence stage, activity level (growth control rate), Setaria viridis (Setaria viridis): 5 (Level 5: growth control rate is above 85%) | weeding effect in post-emergence stage, activity level (growth control rate), Echinochloa crusgali (Echinochloa crusgali): 5 (Level 5: growth control rate is above 85%) | weeding effect in post-emergence stage, activity level (growth control rate), Digitaria sanguinalis (Digitaria sanguinalis): 5 (Level 5: growth control rate is above 85%) | weeding effect in post-emergence stage, activity level (growth control rate), Amaranthus retroflexus (Amaranthus retroflexus): 5 (Level 5: growth control rate is above 85%)

Cc1nnc(NC(=O)c2ccc(C(F)(F)F)c([S@+]([O-])CC(C)O)c2F)o1 (some centres unmarked) [Compound 56]
weeding effect in post-emergence stage, activity level (growth control rate), Abutilon theophrasti (Abutilon theophrasti): 5 (Level 5: growth control rate is above 85%) | weeding effect in post-emergence stage, activity level (growth control rate), Setaria viridis (Setaria viridis): 5 (Level 5: growth control rate is above 85%) | weeding effect in post-emergence stage, activity level (growth control rate), Echinochloa crusgali (Echinochloa crusgali): 5 (Level 5: growth control rate is above 85%) | weeding effect in post-emergence stage, activity level (growth control rate), Digitaria sanguinalis (Digitaria sanguinalis): 5 (Level 5: growth control rate is above 85%) | weeding effect in post-emergence stage, activity level (growth control rate), Amaranthus retroflexus (Amaranthus retroflexus): 5 (Level 5: growth control rate is above 85%)

C#CC[S@@+]([O-])c1c(C(F)(F)F)ccc(C(=O)Nc2nnc(C)o2)c1SC [Compound 553]
weeding effect in post-emergence stage, activity level (growth control rate), Abutilon theophrasti (Abutilon theophrasti): 5 (Level 5: growth control rate is above 85%) | weeding effect in post-emergence stage, activity level (growth control rate), Setaria viridis (Setaria viridis): 5 (Level 5: growth control rate is above 85%) | weeding effect in post-emergence stage, activity level (growth control rate), Echinochloa crusgali (Echinochloa crusgali): 5 (Level 5: growth control rate is above 85%) | weeding effect in post-emergence stage, activity level (growth control rate), Digitaria sanguinalis (Digitaria sanguinalis): 5 (Level 5: growth control rate is above 85%) | weeding effect in post-emergence stage, activity level (growth control rate), Amaranthus retroflexus (Amaranthus retroflexus): 5 (Level 5: growth control rate is above 85%)

CC[S@@+]([O-])c1c(C(F)(F)F)ccc(C(=O)Nc2nnco2)c1F [Compound 574]
weeding effect in post-emergence stage, activity level (growth control rate), Abutilon theophrasti (Abutilon theophrasti): 5 (Level 5: growth control rate is above 85%) | weeding effect in post-emergence stage, activity level (growth control rate), Setaria viridis (Setaria viridis): 5 (Level 5: growth control rate is above 85%) | weeding effect in post-emergence stage, activity level (growth control rate), Echinochloa crusgali (Echinochloa crusgali): 5 (Level 5: growth control rate is above 85%) | weeding effect in post-emergence stage, activity level (growth control rate), Digitaria sanguinalis (Digitaria sanguinalis): 5 (Level 5: growth control rate is above 85%) | weeding effect in post-emergence stage, activity level (growth control rate), Amaranthus retroflexus (Amaranthus retroflexus): 5 (Level 5: growth control rate is above 85%)

CCCCOc1c(C(=O)Nc2nnc(C)o2)ccc(C(F)(F)F)c1[S@+]([O-])CCC [Compound 535]
weeding effect in post-emergence stage, activity level (growth control rate), Abutilon theophrasti (Abutilon theophrasti): 5 (Level 5: growth control rate is above 85%) | weeding effect in post-emergence stage, activity level (growth control rate), Setaria viridis (Setaria viridis): 5 (Level 5: growth control rate is above 85%) | weeding effect in post-emergence stage, activity level (growth control rate), Echinochloa crusgali (Echinochloa crusgali): 5 (Level 5: growth control rate is above 85%) | weeding effect in post-emergence stage, activity level (growth control rate), Digitaria sanguinalis (Digitaria sanguinalis): 5 (Level 5: growth control rate is above 85%) | weeding effect in post-emergence stage, activity level (growth control rate), Amaranthus retroflexus (Amaranthus retroflexus): 5 (Level 5: growth control rate is above 85%)

Cc1nnc(NC(=O)c2ccc(C(F)(F)F)c([S@+]([O-])C(F)(F)F)c2F)o1 [Compound 30]
weeding effect in post-emergence stage, activity level (growth control rate), Abutilon theophrasti (Abutilon theophrasti): 5 (Level 5: growth control rate is above 85%) | weeding effect in post-emergence stage, activity level (growth control rate), Setaria viridis (Setaria viridis): 5 (Level 5: growth control rate is above 85%) | weeding effect in post-emergence stage, activity level (growth control rate), Echinochloa crusgali (Echinochloa crusgali): 5 (Level 5: growth control rate is above 85%) | weeding effect in post-emergence stage, activity level (growth control rate), Digitaria sanguinalis (Digitaria sanguinalis): 5 (Level 5: growth control rate is above 85%) | weeding effect in post-emergence stage, activity level (growth control rate), Amaranthus retroflexus (Amaranthus retroflexus): 5 (Level 5: growth control rate is above 85%)
